Reference: patent US20100010087A1, “Methods for Inducing Stem Cell Migration and Specialization with EC-18” (priority 2008, published 2010)

Assays:
SCF (Kit) mRNA = experiment: SCF mRNA expression in lung and liver of mice after CLP (RT-PCR); format: in vivo; settings: 50 mg/kg
Procedure: (§1) Specifically, donor transgenic GFP (C57BL/6) mice are given 5-FU (150 mg/kg) to kill mature cells. Bone marrow is harvested. C57BL/6 congenic recipient mice are exposed to lethal doses of whole-body radiation (10Gy Cesium-137 at 1.0 Gy/min) and then undergo bone marrow transplant. Engraftment of GFP-BMSC is confirmed after five weeks in select sacrificed mice. Surviving mice are GFP-BMSC chimeras available for investigation. These GFP-BMSC mice then undergo CLP. Specifically, the mice are anesthetized and undergo laparotomy. The sham group undergo laparotomy only. The non-sham group has the cecum ligated and punctured (size and number of punctures may vary depending on the desired severity of injury). Mice are sacrificed at six, twelve and 24 hours. […] Serum is analyzed for levels of cytokines (TNF-α, IL-1, IL-2, IL-4, IL-6, IL-10, and IFN-γ) and chemokines (SDF-1 and SCF). […]
(§2) Additionally, four groups of 20 mice: sham group underwent celiotomy but not CLP; control group underwent CLP and administration of PBS; simultaneous treatment group (STG) had administration of 50 mg/kg MADG PO. […] Serum and tissue levels of pro- and anti-inflammatory cytokines were measured. Serum levels of chemokines stromal cell-derived factor (SDF-1) and stem cell factor (SCF) were measured to ascertain if effects of MADG involve stimulation of bone marrow stromal and stem cells. […]

SDF-1 (Cxcl12) mRNA = experiment: SDF-1 mRNA expression in lung and liver of mice after CLP (RT-PCR); format: in vivo; settings: 50 mg/kg
Procedure: as §1, §2

CCCCC/C=C\C/C=C\CCCCCCCC(=O)OC(COC(C)=O)COC(=O)CCCCCCCCCCCCCCC (racemic) [EC-18, 1-palmitoyl-2-linoleoyl-3-acetyl-rac-glycerol]
increased early expression: kit (SCF) mRNA expression in the liver (SCF (Kit) mRNA; liver, compared to controls (FIG. 5B)) | kit (SCF) mRNA expression in the lung (SCF (Kit) mRNA; lung, compared to controls (FIG. 4B)) | Cxcl2 (SDF-1) mRNA expression in the liver (SDF-1 (Cxcl12) mRNA; liver, compared to controls (FIG. 5A)) | Cxcl2 (SDF-1) mRNA expression in the lung (SDF-1 (Cxcl12) mRNA; lung, compared to controls (FIG. 4A))
